In patent US12594267B2, “Capsid inhibitors for the treatment of HIV” (Gilead Sciences, Inc., priority 2018, dated 2026):
Read-outs that look alike come from different tables or passages of the source.

Test: PK after subcutaneous administration of solutions in dogs
Format: in vivo, Beagle dog
Conditions: dog, plasma, sc, dog, mean ± SD, n=3; for concentration at 56 d: read-out: C56d
Procedure: Formulations containing the compound of Formula (Ia) were prepared as aqueous solutions or oral formulations and administered subcutaneously to rats, dogs, cynomolgus monkey, and/or rhesus monkey.
A solution of the compound of Formula (Ia) in 10% ethanol, 13% water, and 77% PEG 200 (400 mg/mL) was prepared. The solution was administered subcutaneously to dogs at a dose of 12 mg/kg and rats at a dose of 50 mg/kg and the pharmacokinetic (PK) profile was determined. […] In both species, plasma concentrations of the compound of Formula (Ia) were maintained above the target trough concentration of 20 nM (corresponding to an IQ of 5) for at least 84 days (12 weeks).
A solution of the compound of Formula (Ia) in 15% water and 85.0 PEG 300 (400 mg/mL) was prepared. The solution was administered subcutaneously to male beagle dogs at a dose level of 12 mg/kg and dose volume of […] and the pharmacokinetic (PK) profile was determined.
A solution of the compound of Formula (a) sodium salt in water and 300 (300 mg/mL) was prepared that contained 22.6% water/50% PEG 300/1.1% NaOH/26.3% Formula (Ia). The solution was administered subcutaneously to male beagle dogs at a dose level of 12 mg/kg and dose volume of […] and the pharmacokinetic (PK) profile was determined.
A 300 mg/ml solution of a compound of Formula (Ia) having 9.8 w/w % water, 65.0 w/w % PEG 300, and 25.2 w/w % of the compound of Formula (Ia) was prepared. The solution was administered subcutaneously to rats at a dose of 50 mg/kg and to dogs at a dose of 12 mg/kg and the pharmacokinetic (PK) profile was determined. […] In the rat, plasma concentrations of the compound of Formula (Ia) were maintained above the target trough concentration of 20 nM for at least 168 days (24 weeks). In the dog, plasma concentrations of the compound of Formula (Ia) were maintained above the target trough concentration of 20 nM for at least 84 days (12 weeks).
(§1) A 150 mg/ml solution of a compound of Formula (Ia) having 27.92 w/w % water, 58.04 w/w % PEG 300, 13.47 w/w % of a compound of Formula (Ia), and 1.1 w/w % NaOH was prepared. The solution was administered subcutaneously to rats at a dose of 50 mg/kg and to dogs at a dose of 12 mg/kg and the pharmacokinetic (PK) profile was determined. […] In the rat, plasma concentrations of the compound of Formula (Ia) were maintained above the target trough concentration of 20 nM for at least 126 days (18 weeks). In the dog, plasma concentrations of the compound of Formula (Ia) were maintained above the target trough concentration of 20 nM for at least 56 days (8 weeks).
as §1, with “300” for “150”, “23.2” for “27.92”, “50.0” for “58.04”, “25.7” for “13.47”
A 50 mg/ml solution of a compound of Formula (Ia) having 30.07 w/w % water, 64.40 w/w % PEG 300, 4.68 w/w % of a sodium salt of the compound of Formula (Ia), and 0.85 w/w % poloxamer 188 was prepared. The solution was administered subcutaneously to rats at a dose of 50 mg/kg and to dogs at a dose of 6 mg/kg and the pharmacokinetic (PK) profile was determined. […] In the rat, plasma concentrations of the compound of Formula (Ia) were maintained above the target trough concentration of 20 nM for at least 28 days (4 weeks). In the dog, plasma concentrations of the compound of Formula (Ia) were maintained above the target trough concentration of 20 nM for at least 14 days (2 weeks). […]

[1] = Beagle, 6 mg/kg, SC 6 mg/kg, 150 mg/mL solution (w/w %: 26.6 water, 56.97 PEG 300, 13.39 Formula (Ia), 0.57 NaOH, 2.49 poloxamer 188)
[2] = beagle, 6 mg/kg, SC 6 mg/kg, 300 mg/mL solution (w/w %: 21.97 water, 47.05 PEG 300, 25.21 Formula (Ia), 1.08 NaOH, 4.69 poloxamer 188)
[3] = beagle, 12 mg/kg, SC 12 mg/kg, 150 mg/mL solution (w/w %: 27.92 water, 58.04 PEG 300, 13.47 Formula (Ia), 1.1 NaOH)
[4] = beagle, 12 mg/kg, SC 12 mg/kg, 300 mg/mL solution (w/w %: 9.8 water, 65.0 PEG 300, 25.2 Formula (Ia))
[5] = beagle, 12 mg/kg, SC 12 mg/kg, 300 mg/mL solution (w/w %: 23.2 water, 50.0 PEG 300, 25.7 Formula (Ia), 1.1 NaOH)

For `CC(C)(C#Cc1ccc(-c2ccc(Cl)c3c(NS(C)(=O)=O)nn(CC(F)(F)F)c23)c([C@H](Cc2cc(F)cc(F)c2)NC(=O)Cn2nc(C(F)(F)F)c3c2C(F)(F)[C@@H]2C[C@H]32)n1)S(C)(=O)=O` [Formula (Ia), N—((S)-1-(3-(4-chloro-3-(methylsulfonamido)-1-(2,2,2-trifluoroethyl)-1H-indazol-7-yl)-6-(3-methyl-3-(methylsulfonyl)but-1-yn-1-yl)pyridin-2-yl)-2-(3,5-difluorophenyl)ethyl)-2-((3bS,4aR)-5,5-difluoro-3-(trifluoromethyl)-3b,4,4a,5-tetrahydro-1H-cyclopropa[3,4]cyclopenta[1,2-c]pyrazol-1-yl)acetamide], the AUC(0-t) (Beagle, 6 mg/kg, SC 6 mg/kg, 100 mg/mL solution (w/w %: 28.36 water, 60.73 PEG 300, 9.23 sodium salt of Formula (Ia), 1.68 poloxamer 188), read-out: AUC0-24h) was 6.05 ± 3.43 µM·h, the AUC(0-t) (Beagle, 6 mg/kg, SC 6 mg/kg, 125 mg/mL solution (w/w %: 27.51 water, 58.92 PEG 300, 11.48 sodium salt of Formula (Ia), 2.09 poloxamer 188), read-out: AUC0-24h) was 4.71 ± 1.51 µM·h and the AUC(0-t) (Beagle, 6 mg/kg, SC 6 mg/kg, 125 mg/mL solution (w/w %: 27.51 water, 58.92 PEG 300, 11.48 sodium salt of Formula (Ia), 2.09 poloxamer 188), read-out: AUC0-14d) was 90.3 ± 3.5 µM·h. For the same compound, the Cmax [1] was 101 ± 44 nM, the Tmax [1] was 10 ± 15.6 days and the AUC(0-t) (Beagle, 6 mg/kg, SC 6 mg/kg, 150 mg/mL solution (w/w %: 26.6 water, 56.97 PEG 300, 13.39 Formula (Ia), 0.57 NaOH, 2.49 poloxamer 188), read-out: AUC0-56d) was 69 ± 13.9 µM·h. It also gave an AUC(0-t) (Beagle, 6 mg/kg, SC 6 mg/kg, 150 mg/mL solution (w/w %: 26.6 water, 56.97 PEG 300, 13.39 Formula (Ia), 0.57 NaOH, 2.49 poloxamer 188), read-out: AUC0-84d) of 76.6 ± 8.5 µM·h, a concentration at 56 d [1] of 24.9 nM and an AUC(0-t) (beagle, 6 mg/kg, SC 6 mg/kg, 50 mg/mL solution (w/w %: 30.07 water, 64.40 PEG 300, 4.68 sodium salt of Formula (Ia), 0.85 poloxamer 188), read-out: AUC0-24h) of 14.7 ± 4.4 µM·h. For the same compound, the concentration at 14 d (beagle, 6 mg/kg, SC 6 mg/kg, 50 mg/mL solution (w/w %: 30.07 water, 64.40 PEG 300, 4.68 sodium salt of Formula (Ia), 0.85 poloxamer 188), read-out: C14d) was 37.2 ± 13.9 nM, the AUC(0-t) (beagle, 6 mg/kg, SC 6 mg/kg, 75 mg/mL solution (w/w %: 29.21 water, 62.55 PEG 300, 6.97 sodium salt of Formula (Ia), 1.68 poloxamer 188), read-out: AUC0-24h) was 5.88 ± 1.95 µM·h and the AUC(0-t) (beagle, 6 mg/kg, SC 6 mg/kg, 75 mg/mL solution (w/w %: 29.21 water, 62.55 PEG 300, 6.97 sodium salt of Formula (Ia), 1.68 poloxamer 188), read-out: AUC0-28d) was 101 ± 11 µM·h. For the same compound, the concentration at 21 d (beagle, 6 mg/kg, SC 6 mg/kg, 75 mg/mL solution (w/w %: 29.21 water, 62.55 PEG 300, 6.97 sodium salt of Formula (Ia), 1.68 poloxamer 188), read-out: C21d) was 40 ± 24 nM, the Cmax [2] was 69 ± 22 nM and the AUC(0-t) (beagle, 6 mg/kg, SC 6 mg/kg, 300 mg/mL solution (w/w %: 21.97 water, 47.05 PEG 300, 25.21 Formula (Ia), 1.08 NaOH, 4.69 poloxamer 188), read-out: AUC0-56d) was 55.4 ± 20.8 µM·h. It also gave a concentration at 56 d [2] of 30.4 ± 7.2 nM, a Cmax [3] of 312 ± 93 nM and a Tmax [3] of 16.3 ± 4.04 days. The concentration at 56 d [3] was 22.9 ± 5.6 nM, the Cmax [4] was 133 ± 10 nM and the Tmax [4] was 14 days. For the same compound, the AUC(0-t) (beagle, 12 mg/kg, SC 12 mg/kg, 300 mg/mL solution (w/w %: 9.8 water, 65.0 PEG 300, 25.2 Formula (Ia)), read-out: AUC0-126d) was 139 ± 8 µM·h, the concentration at 84 d (beagle, 12 mg/kg, SC 12 mg/kg, 300 mg/mL solution (w/w %: 9.8 water, 65.0 PEG 300, 25.2 Formula (Ia)), read-out: C84d) was 21.7 ± 6.5 nM and the Cmax [5] was 267 ± 176 nM. It also gave a Tmax [5] of 12.3 ± 9.62 days, an AUC(0-t) (beagle, 12 mg/kg, SC 12 mg/kg, 300 mg/mL solution (w/w %: 23.2 water, 50.0 PEG 300, 25.7 Formula (Ia), 1.1 NaOH), read-out: AUC0-56d) of 166 ± 110 µM·h and a concentration at 56 d [5] of 29.6 ± 30.8 nM. It also gave an AUC(0-t) (beagle, 12 mg/kg, SC 12 mg/kg, 400 mg/mL solution in 10% ethanol, 13% water, 77% PEG 200, read-out: AUC0-84d) of 89.6 ± 10.1 µM·h.
